Values joined by “and” are separate entries in the source; they are usually repeats but may differ in a detail not shown here. Equal entries are not always repeated.
System: B16-BL6 murine melanoma cells
Assay: Tumorigenicity and "spontaneous" metastasis assay (s.c. footpad injection of cancer cells)
Type: in vivo, female C57BL/6 mice
Details: for Survival (days) (mean ± ES) / Lung metastases Frequency (%) / Lung metastases No. (mean ± ES) / Primary tumors Frequency (%) / Primary tumors Weight g (mean ± ES) / Local recurrencies Frequency (%) / Local recurrencies Weight g (mean ± ES): DOX+NAC same doses; for reduction in the number of lung metastases with respect to controls / reduction in the weight of primary tumors with respect to controls / weight of primary tumors 4 weeks after injection of cancer cells (effect in words) / reduction in the weight of local recurrencies with respect to controls: combined same doses
Procedure: DOX was used in the form of commercial injectable product, containing 10 mg of drug per vial (Adriblastina®, Farmitalia - Carlo Erba, Milano, Italia), to be dissolved in distilled water when injected. In the experiments wherein the oral administration was provided, NAC was used in the form of commercial product containing 200 mg of NAC per dosage (Fluimucil®, Zambon Italia, Vicenza), directly dissolved in the drinking water of mice. In the experiments wherein the parenteral (i.p. or i.v.) administration of NAC was foreseen, a 98% pure laboratory reagent (Sigma Chemical Co., St. Louis, MO, U.S.A.) was used, dissolved in a phosphate buffer (PBS), pH 7.4, and furtherly brought to neutrality with NaOH 0.1 N ("spontaneous" metastasis assays) or in NaCl 0.15 M, taking the solution to pH 7.0 (experimental metastasis assays).
A total of 385 adult mice was used (Charles River, Calco, Como, Italia) of which 196 female nude (CD-1)BR mice, aged 7 weeks, average weight of 25 g and 189 female C57BL/6 mice aged 6-8 weeks, average weight of 20 g, used in the experimental metastasis assays and in those of "spontaneous" metastases respectively. The (CD-1)BR mice were housed in sterile cages with filtering cover, in a number of 3 animals per cage, at a room temperature of 26-28°C, with a relative humidity of 55%, a ventilation accounting for 12-15 air/h renewals and a 12 hours day/night cycle; the C57BL/6 mice were stabulated in a number of 5 animals per cage, at a temperature of 25-27°C, with a relative humidity of 50% and a 12 hours day/night cycle. The (CD-1)BR mice received a special diet sterilized under vacuum (Mucedola S.r.L, Settimo Milanese, Milano, Italia) and sterilized drinking water; the C57BL/6 mice received a standard rodent diet (MIL Topi e Ratti, Morini, S. Polo d'Enza, Reggio Emilia, Italia) and drinking water ad libitum throughout the duration of the experiments. Within the experiments wherein the sacrifice of mice was foreseen at a scheduled time, killing was carried out by means of ethyl ether anaesthesia and subsequent cervical dislocation. The stabulation and all the animal treatments were carried out in accordance with the national and Community guidelines (D.L. 27.01.1992 N. 116; 86/609/EEC Directive).
In this kind of experiment, B16-BL6 murine melanoma cells were injected s.c. in the footpad of the right hind leg (5 x 10^5 cells/mouse in experiment #5, 2 x 10^5 cells/mouse in experiments #6, #7 and #8).
With such a technique a primary tumor is formed in the side of injection, from which starts the spread of metastases to the lungs.
Also in these experiments 4 groups were taken into consideration. In all the experiments NAC was administered with drinking water, at a dose of 2 g/kg body weight, starting 48-72 hours before injection of cancer cells and continuing until the end of each experiment. In experiment #5 DOX was administered by i.p. route (2 mg/kg body weight), 24 hours after injection of cancer cells. In experiments #6, #7 and #8 DOX was instead administered by i.v. route (10 mg/kg body weight), 24 hours (#6 and #7) or 7 days (#8) after injection of cancer cells.
In experiments #5, #7 and #8 mice were maintained until spontaneous death, so as to have indications also about the effect of treatment on survival. Both the primary tumors (frequency and weight) and the lung metastases (frequency and number) were therefore evaluated at the time of death.
In experiment #6 instead, 4 weeks after injection of the cancer cells, the leg carrying the primary tumor was removed. Further 4 weeks later the animals were killed, the tumors which gave recurrencies in the leg stump were excised and weighed, and the lung metastases were scored.
Four additional experiments, two of which partially overlapping (#7 and #8) were designed in order to evaluate the effects of NAC and DOX, individually or in combination, on the formation of local primary tumors and on the subsequent spread of lung metastases. […]

[1] = experiment #5, 5 x 10^5 cells/mouse, DOX 2 mg/kg i.p. +24h, NAC 2 g/kg p.o. -48 h/end
[2] = experiment #5, 5 x 10^5 cells/mouse, DOX 2 mg/kg i.p. +24h, NAC 2 g/kg p.o. -48 h/end, at spontaneous death
[3] = experiment #5, DOX 2 mg/kg i.p. +24 h, NAC 2 g/kg p.o.
[4] = experiment #6, 2 x 10^5 cells/mouse, DOX 10 mg/kg i.v. +24h, NAC 2 g/kg p.o. -48 h/56 days, leg removed 4 weeks after cells
[5] = experiment #6, 2 x 10^5 cells/mouse, DOX 10 mg/kg i.v. +24h, NAC 2 g/kg p.o. -48 h/56 days, sacrifice at 8 weeks
[6] = experiment #6, DOX 10 mg/kg +24 h, NAC 2 g/kg p.o.
[7] = experiment #6, DOX 10 mg/kg +24 h, NAC 2 g/kg p.o., 4 weeks
[8] = experiment #6, DOX 10 mg/kg +24 h, NAC 2 g/kg p.o., 8 weeks
[9] = experiment #7 (NAC group common to #7/8), DOX 10 mg/kg i.v. +24 h, NAC 2 g/kg p.o.
[10] = experiment #7, 2 x 10^5 cells/mouse, DOX 10 mg/kg i.v. +24h, NAC 2 g/kg p.o. -72 h/end
[11] = experiment #7, 2 x 10^5 cells/mouse, DOX 10 mg/kg i.v. +24h, NAC 2 g/kg p.o. -72 h/end, at spontaneous death
[12] = experiment #8, 2 x 10^5 cells/mouse, DOX 10 mg/kg i.v. +7 gg. (7 days), NAC 2 g/kg p.o. -72 h/end
[13] = experiment #8, 2 x 10^5 cells/mouse, DOX 10 mg/kg i.v. +7 gg. (7 days), NAC 2 g/kg p.o. -72 h/end, at spontaneous death

| Compound | Survival (days) (mean ± ES) [1] | Lung metastases Frequency (%) [2] | Lung metastases No. (mean ± ES) [2] | Primary tumors Frequency (%) [2] | Primary tumors Weight g (mean ± ES) [2] | weight of primary tumors (effect in words) [3] | reduction in the number of lung metastases with respect to controls [3] | reduction in the weight of primary tumors with respect to controls [3] | Primary tumors Frequency (%) [4] | Primary tumors Weight g (mean ± ES) [4] | Local recurrencies Frequency (%) [5] | Local recurrencies Weight g (mean ± ES) [5] | Lung metastases Frequency (%) [5] | Lung metastases No. (mean ± ES) [5] | weight of primary tumors 4 weeks after injection of cancer cells (effect in words) [6] | reduction in the weight of primary tumors with respect to controls [7] | reduction in the number of lung metastases with respect to controls [8] | reduction in the weight of local recurrencies with respect to controls [8] | reduction in the number of lung metastases with respect to controls [9] | Survival (days) (mean ± ES) [10] | also measured |
| --- | --- | --- | --- | --- | --- | --- | --- | --- | --- | --- | --- | --- | --- | --- | --- | --- | --- | --- | --- | --- | --- |
| COc1cccc2c1C(=O)c1c(O)c3c(c(O)c1C2=O)C[C@@](O)(C(=O)CO)C[C@@H]3O[C@H]1C[C@H](N)[C@H](O)[C@H](C)O1 [DOX, Doxorubicin] | 31.2 ± 4.7 days | 100.0% | 10.0 ± 6.4 No. | 100.0% | 3.0 ± 1.3 g | did not decrease to a significant extent | 6 fold and 6.0 fold | 1.3 fold | 92.3% | 0.21 ± 0.05 g | 69.2% | 2.2 ± 0.7 g | 75.0% | 32.6 ± 12.2 No. | not affected | 1.4 fold | 0.7 fold | 1.1 fold | 0.9 fold | 51.3 ± 1.9 days | Lung metastases Frequency (%) [11]: 76.9%; Lung metastases No. (mean ± ES) [11]: 23.0 ± 10.0 No.; Primary tumors Frequency (%) [11]: 100.0%; Primary tumors Weight g (mean ± ES) [11]: 2.2 ± 0.6 g; survival (effect in words) (experiment #7, DOX 10 mg/kg i.v. 24 hours after injection of cancer cells): prolonged survival; Survival (days) (mean ± ES) [12]: 49.0 ± 2.8 days; Lung metastases Frequency (%) [13]: 63.6%; Lung metastases No. (mean ± ES) [13]: 12.6 ± 9.0 No.; Primary tumors Frequency (%) [13]: 100.0%; Primary tumors Weight g (mean ± ES) [13]: 2.3 ± 0.6 g; survival curves and mean survival time (effect in words) (experiment #8, DOX 10 mg/kg i.v. 7 days after injection of cancer cells, NAC 2 g/kg p.o.): did not affect the survival curves nor the mean survival time |
| CC(=O)N[C@@H](CS)C(=O)O [NAC, N-acetyl-cysteine] | 32.2 ± 2.5 days | 83.3% | 8.3 ± 6.8 No. | 100.0% | 1.9 ± 0.4 g | more than halved | 7.2 fold | 2.1 fold | 93.3% | 0.28 ± 0.04 g | 53.3% | 2.8 ± 0.8 g | 45.5% | 12.9 ± 7.8 No. | not affected | 1.0 fold | 1.6 fold | 0.9 fold | 2.1 fold | 60.1 ± 3.7 days | Lung metastases Frequency (%) [11]: 18.2%; Lung metastases No. (mean ± ES) [11]: 9.5 ± 8.3 No.; Primary tumors Frequency (%) [11]: 100.0%; Primary tumors Weight g (mean ± ES) [11]: 1.9 ± 0.6 g; Survival (days) (mean ± ES) [12]: 60.1 ± 3.7 days; Lung metastases Frequency (%) [13]: 18.2%; Lung metastases No. (mean ± ES) [13]: 9.5 ± 8.3 No.; Primary tumors Frequency (%) [13]: 100.0%; Primary tumors Weight g (mean ± ES) [13]: 1.9 ± 0.6 g; inhibition in the frequency of lung metastases with respect to controls (experiments #7/8, NAC 2 g/kg p.o.): 4.8 fold; survival of mice (effect in words) (experiments #7 and #8, NAC 2 g/kg p.o., DOX 10 mg/kg i.v. +24 h or +7 days): enhanced remarkably the survival |
